Data on 2 compounds can be found in patent US8304443B2, “Indazole derivatives” (Asahi Kasei Pharma Corporation, priority 2008, dated 2012).

For series [1], the target named is T1, human α1A adrenergic receptor (Homo sapiens, UniProt P35348).
T1 construct: expressed in transfected cells; host or cells: HEK293 cells, pcDNA3.1(−), geneticin-selected
T1 sequence (P35348 1-466): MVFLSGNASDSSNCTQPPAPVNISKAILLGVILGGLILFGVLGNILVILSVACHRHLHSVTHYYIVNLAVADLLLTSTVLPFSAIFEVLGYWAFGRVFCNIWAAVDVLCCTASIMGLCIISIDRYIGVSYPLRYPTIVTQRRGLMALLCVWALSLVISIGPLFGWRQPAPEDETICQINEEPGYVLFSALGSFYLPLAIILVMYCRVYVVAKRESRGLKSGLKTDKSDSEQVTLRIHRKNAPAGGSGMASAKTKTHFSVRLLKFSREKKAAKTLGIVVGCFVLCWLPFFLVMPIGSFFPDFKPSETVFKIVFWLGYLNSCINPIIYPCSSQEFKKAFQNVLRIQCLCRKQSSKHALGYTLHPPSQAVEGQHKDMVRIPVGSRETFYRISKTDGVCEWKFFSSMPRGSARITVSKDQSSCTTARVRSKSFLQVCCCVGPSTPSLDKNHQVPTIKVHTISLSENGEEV
Nature of the series: Test example 4: human α1A adrenergic receptor agonist activity (Ca flux, Fura-2). The note with it: for Emax: Table 4, Test example 4, maximum response to norephinephrine taken as 100%, read-out: α1A receptor I.A. It is filed as cell-based. The protocol: Human α1A adrenergic receptor agonist activity is determined by using HEK293 cells transfected with pcDNA3.1(−) (Invitrogen) to which human α1A gene has been inserted. These cells are cultured in a DMEM medium containing 10% fetal bovine serum, 400 μg/mL geneticin (Gibco BRL), 100 U/ml penicillin and 100 μg/ml streptomycin. […] After carrying out the loading for 30 minutes in a CO2 incubator, excess Fura-2AM is removed by washing the cells twice with the assay buffer. The cells obtained after the centrifuge is prepared to 5×10^6 cells/ml by using the assay buffer, and aliquoted into a 96-well UV plate (manufactured by Corning Inc.) to give a cell plate (80 μl/well). […] After the measurement for about 30 seconds, 20 μl of the test sample from the sample plate is added to the cell plate and the measurement is continued for another 270 seconds. Ca flux caused by the test compound is obtained from the peak height difference between the maximum value of fluorescence intensity ratio at 340 nm and 380 nm after the addition of the test compound and the fluorescence intensity ratio before the addition of the test compound. Maximum response to norephinephrine as a positive control is taken as 100%, and the maximum response ratio of each test compound is obtained as Intrinsic Activity [I.A. (%)].

The target of series [2] is T2, human β3 adrenergic receptor (Homo sapiens, UniProt P13945).
T2 construct: used as a probe to obtain the full length human β3 gene from a human genomic library (Clonetech); expressed in transfected cells; host or cells: CHO (Chinese hamster ovary) cells, pcDNA3, geneticin-selected
T2 sequence (P13945 whole entry): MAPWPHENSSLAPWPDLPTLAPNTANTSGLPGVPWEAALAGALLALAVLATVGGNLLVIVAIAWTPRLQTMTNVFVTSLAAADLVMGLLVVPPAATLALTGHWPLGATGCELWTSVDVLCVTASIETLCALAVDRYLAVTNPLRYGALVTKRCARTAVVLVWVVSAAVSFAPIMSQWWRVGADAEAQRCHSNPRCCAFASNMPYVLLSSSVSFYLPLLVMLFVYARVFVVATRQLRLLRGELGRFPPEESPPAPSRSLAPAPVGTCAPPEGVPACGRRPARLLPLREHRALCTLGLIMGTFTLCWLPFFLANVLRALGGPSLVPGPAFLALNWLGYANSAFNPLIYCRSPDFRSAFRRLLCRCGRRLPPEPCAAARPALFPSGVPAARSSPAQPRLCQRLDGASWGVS
The series can be described thus: Test example 1-B: human β3 adrenergic receptor agonist activity (cAMP-Screen, 96-well). It is filed as cell-based. As to conditions: for Emax: 0.5 h, read-out: β3 receptor I.A.; for pEC50: Table 4, Test example 1-B, CHO cells with human β3 gene, cAMP. The protocol:
Human β3 adrenergic receptor agonist activity is determined using CHO (Chinese hamster ovary) cells transfected with pcDNA3 (Invitrogen) to which human β3 gene has been inserted. […] This human β3 cDNA fragment is used as a probe to obtain the full length human β3 gene from a human genomic library (Clonetech). The above cells are cultured in a Ham's F-12 medium containing 10% fetal bovine serum and 400 μg/mL geneticin (Invitrogen). After seeding these cells into a 96-well plate (2×10^4 cells/well) and culturing them for about 20 hours, they are allowed to stand in a serum-free Ham's F-12 medium (80 μL) for 15 minutes. The test compound is first dissolved in DMSO, serially diluted with Ham's F-12 comprising 100 mmol/L HEPES and 1 mmol/L isobutylmethylxanthine, and then 20 μL of the solution is added to the cells. After the cells are cultured for 30 minutes, the medium is removed, followed by addition of assay/lysis buffer (0.1 ml) included in cAMP-Screen Kit (manufactured by Applied Biosystems). The cells are incubated for 30 minutes at 37° C. The resulting cell lysate is determined to cAMP quantitation by using cAMP-Screen kit described above.

Series [3] in a line: Test example 11: solubility test in hydrochloric acid buffer solution having pH 1.2. It is filed as physicochemical. The note with it: 37 °C, pH 1.2, simulated gastric fluid, thermodynamic from solid, pH 1.2, 37° C., prepared at 1000 μg/mL. The protocol:
500 μg of the test compound is precisely weighed, and then added with hydrochloric acid buffer solution having pH 1.2 until the concentration of 1000 μg/mL is obtained. The […] is shaken at 37° C. for 1 hour. To a filter tube, the entire solution obtained after the shaking is transferred and is subjected to centrifugal filtration at room temperature. The filtrate is analyzed by HPLC, and by using a calibration curve, saturation solubility of the test compound is obtained from the peak area value.
Standard solution is prepared by precisely weighing 500 μg of the test compound and dissolving it DMSO to obtain the concentration of 1 mg/mL.
As a separation column, YMC-Pack C18 (4.6 mm×150 mm, manufactured by YMC) is used. Detection is made at UV-254 nm and the temperature inside the column is 40° C. Condition for elution is as follows; with flow rate of 1 ml/minute, solution A as a solvent=water [comprising 0.1% (v/v) acetic acid] and solution B=acetonitrile are used, and from minute 0 to minute 20, 5 to 98% (v/v) linear gradient of solution B is applied, followed by elution with 98% of solution B until minute 25 and elution with 5% of solution B from minute 25.01 to minute 35.

Structures are written as SMILES. pEC50: −log10 of the molar value. Values after ≈ are worked out from the molar mass of the structure shown.

Consider `CS(=O)(=O)Nc1cccc([C@@H](O)CNCCOc2ccc3c(C4CC4)n[nH]c3c2)c1` [Example 1, (R)—N-(3-(1-Hydroxy-2-(2-(3-cyclopropylindazol-6-yloxy)ethylamino)ethyl)phenyl)methanesulfonamide], for which, in series [1], the pEC50 was 5.78 and the Emax came out at 20%. Besides, in series [2], the Emax stood at 77% and the negative-log EC50 (pEC50) is 7.82. In series [3], the concentration in solution (solubility at 1 h) came to 982 µg/mL (≈ 2280 µM).
Turning to `CS(=O)(=O)Nc1cccc([C@@H](O)CNCCOc2ccc3c(C4CCC4)n[nH]c3c2)c1` [Example 2, (R)—N-(3-(1-Hydroxy-2-(2-(3-cyclobutylindazol-6-yloxy)ethylamino)ethyl)phenyl)methanesulfonamide], the Emax in series [1] amounted to 10%. Further, in series [2], the Emax came to 68% and the pEC50 is 7.25. The compound also displayed a solubility at 1 h in series [3] greater than 1000 µg/mL.
